Data as given in patent US10781211B2, “Spirocycle compounds and methods of making and using same” (Lundbeck La Jolla Research Center, Inc., priority 2016, dated 2020).

How the values were obtained:
Format in all cases: in vivo
Details in all cases: 5 mg/kg oral gavage
FAAH = FAAH (Mus musculus (Mouse), UniProt O08914); assay: Mouse brain proteomes from inhibitor treated mice (oral gavage, sacrifice 4 h after administration, ABPP analysis), FAAH
Protocol: (§1) Preparation of Mouse Brain Proteomes from Inhibitor Treated Mice.
(§2) Inhibitors were administered to wild-type C57Bl/6J by oral gavage in a vehicle, e.g. PEG400/Ethanol/PBS (7/2/1). Each animal was sacrificed 4 h following administration and brain proteomes were prepared and analyzed according to previously established methods (See Niphakis, M. J., et al. (2011) ACS Chem. Neurosci. and Long, J. Z., et al. Nat. Chem. Biol. 5:37-44). Data from this assay is shown in Table 2 (% inhibition at 5 mg/kg).

MAGL = MAGL (Mus musculus (Mouse), UniProt O35678); assay: Mouse brain proteomes from inhibitor treated mice (oral gavage, sacrifice 4 h after administration, ABPP analysis)
Protocol: as §1, §2

ABHD6 = ABHD6 (Mus musculus (Mouse), UniProt Q8R2Y0); assay: Mouse brain proteomes from inhibitor treated mice (oral gavage, sacrifice 4 h after administration, ABPP analysis), ABHD6
Protocol: as §1, §2

Chain of MAGL (O35678 whole entry): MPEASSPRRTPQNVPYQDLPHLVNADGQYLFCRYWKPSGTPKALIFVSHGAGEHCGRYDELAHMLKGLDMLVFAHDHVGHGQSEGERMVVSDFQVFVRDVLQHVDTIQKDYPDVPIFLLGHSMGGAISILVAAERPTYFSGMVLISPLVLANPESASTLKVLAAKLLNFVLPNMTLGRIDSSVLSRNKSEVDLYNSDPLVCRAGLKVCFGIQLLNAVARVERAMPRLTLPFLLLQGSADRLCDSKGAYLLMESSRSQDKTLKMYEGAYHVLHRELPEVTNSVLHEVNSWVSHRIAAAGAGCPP
Chain of FAAH (O08914 whole entry): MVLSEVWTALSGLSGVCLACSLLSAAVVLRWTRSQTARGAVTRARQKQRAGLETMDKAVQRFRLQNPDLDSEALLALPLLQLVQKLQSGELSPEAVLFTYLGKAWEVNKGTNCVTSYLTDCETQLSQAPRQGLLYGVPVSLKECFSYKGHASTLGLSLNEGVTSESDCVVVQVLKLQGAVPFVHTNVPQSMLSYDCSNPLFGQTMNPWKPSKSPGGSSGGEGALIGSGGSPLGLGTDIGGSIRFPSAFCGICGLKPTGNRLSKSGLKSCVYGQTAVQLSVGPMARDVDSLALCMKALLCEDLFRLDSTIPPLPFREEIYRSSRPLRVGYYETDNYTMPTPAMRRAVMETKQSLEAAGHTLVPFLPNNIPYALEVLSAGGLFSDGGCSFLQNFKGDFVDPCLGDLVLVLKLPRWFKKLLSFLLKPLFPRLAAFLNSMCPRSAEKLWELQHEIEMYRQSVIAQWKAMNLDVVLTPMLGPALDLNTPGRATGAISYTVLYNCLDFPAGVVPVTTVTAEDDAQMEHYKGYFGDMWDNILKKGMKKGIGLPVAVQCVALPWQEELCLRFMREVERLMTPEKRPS
Chain of ABHD6 (Q8R2Y0 whole entry): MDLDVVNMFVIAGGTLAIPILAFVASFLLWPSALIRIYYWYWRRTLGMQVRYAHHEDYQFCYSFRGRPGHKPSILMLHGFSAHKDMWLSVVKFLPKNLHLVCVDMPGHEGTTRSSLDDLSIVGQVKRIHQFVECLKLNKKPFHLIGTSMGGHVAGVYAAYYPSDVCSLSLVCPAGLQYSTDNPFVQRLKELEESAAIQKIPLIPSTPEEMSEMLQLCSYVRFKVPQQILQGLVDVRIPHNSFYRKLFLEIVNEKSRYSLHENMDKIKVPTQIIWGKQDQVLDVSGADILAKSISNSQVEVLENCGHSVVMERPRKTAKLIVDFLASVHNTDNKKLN

Compound | FAAH % Inh 5 mg/kg (mouse) (FAAH) | MAGL % Inh 5 mg/kg (mouse) (MAGL) | ABHD6 % Inh 5 mg/kg (mouse) (ABHD6)
CS(=O)(=O)N1CCc2cccc(CN3CCCC34CCN(C(=O)OC(C(F)(F)F)C(F)(F)F)CC4)c2C1 [Example 146, 1,1,1,3,3,3-Hexafluoropropan-2-yl 1-((2-methanesulfonyl-1,2,3,4-tetrahydroisoquinolin-8-yl)methyl)-1,8-diazaspiro[4.5]decane-8-carboxylate] | # (# is < 25%) | ### (### is ≥ 75%) | –
Cc1ccc(CN2CCCC23CCN(C(=O)OC(C(F)(F)F)C(F)(F)F)CC3)cc1C(F)(F)F [Example 180, 1,1,1,3,3,3-Hexafluoropropan-2-yl 1-(4-methyl-3-(trifluoromethyl)benzyl)-1,8-diazaspiro[4.5]decane-8-carboxylate] | – | ### (### is ≥ 75%) | –
N#Cc1cc(CN2CCCC23CCN(C(=O)OC(C(F)(F)F)C(F)(F)F)CC3)cc(N2CCC(C(=O)O)CC2)c1 [Example 210] | # (# is < 25%) | ### (### is ≥ 75%) | –
CCN1CCCc2cccc(CN3CCC4(CCN(C(=O)OC(C(F)(F)F)C(F)(F)F)CC4)C3)c21 [Example 71, 1,1,1,3,3,3-Hexafluoropropan-2-yl 2-((1-ethyl-1,2,3,4-tetrahydroquinolin-8-yl)methyl)-2,8-diazaspiro[4.5]decane-8-carboxylate] | # (# is < 25%) | ### (### is ≥ 75%) | –
O=C(OC(C(F)(F)F)C(F)(F)F)N1CCC2(CCCN2Cc2ccc3c(c2)COC3)CC1 [Example 151, 1,1,1,3,3,3-Hexafluoropropan-2-yl 1-((1,3-dihydroisobenzofuran-5-yl)methyl)-1,8-diazaspiro[4.5]decane-8-carboxylate] | – | ### (### is ≥ 75%) | –
O=C(O)C1CCN(c2cc(CN3CCCC34CCN(C(=O)OC(C(F)(F)F)C(F)(F)F)CC4)cc(C(F)(F)F)c2)CC1 [Example 123, 1-(3-((8-(((1,1,1,3,3,3-Hexafluoropropan-2-yl)oxy)carbonyl)-1,8-diazaspiro[4.5]decan-1-yl)methyl)-5-(trifluoromethyl)phenyl)piperidine-4-carboxylic acid] | # (# is < 25%) | ### (### is ≥ 75%) | –
CN1CCN(c2c(Cl)cccc2CN2CC3(CCN(C(=O)OC(C(F)(F)F)C(F)(F)F)CC3)CC2(C)C)CC1 [Example 189, 1,1,1,3,3,3-Hexafluoropropan-2-yl 2-(3-chloro-2-(4-methylpiperazin-1-yl)benzyl)-3,3-dimethyl-2,8-diazaspiro[4.5]decane-8-carboxylate] | # (# is < 25%) | – | # (# is < 25%)
CCOc1cccc(CN2CCCC23CCN(C(=O)OC(C(F)(F)F)C(F)(F)F)CC3)c1 [Example 5, 1,1,1,3,3,3-Hexafluoropropan-2-yl 1-(3-ethoxybenzyl)-1,8-diazaspiro[4.5]decane-8-carboxylate] | # (# is < 25%) | ### (### is ≥ 75%) | –
O=C(OC(C(F)(F)F)C(F)(F)F)N1CCC2(CCCN2Cc2ccc(Cl)cc2)CC1 [Example 62, 1,1,1,3,3,3-Hexafluoropropan-2-yl 1-(4-chlorobenzyl)-1,8-diazaspiro[4.5]decane-8-carboxylate] | – | ### (### is ≥ 75%) | –
O=C(OC(C(F)(F)F)C(F)(F)F)N1CCC2(CCN(Cc3ccc(Cl)cc3N3CCOCC3)C2)CC1 [Example 21, 1,1,1,3,3,3-Hexafluoropropan-2-yl 2-(4-chloro-2-morpholinobenzyl)-2,8-diazaspiro[4.5]decane-8-carboxylate] | # (# is < 25%) | ### (### is ≥ 75%) | –
O=C(O)C1CCN(Cc2cc(Cl)cc(CN3CCCC34CCN(C(=O)OC(C(F)(F)F)C(F)(F)F)CC4)c2)CC1 [Example 194, 1-(3-Chloro-5-((8-(((1,1,1,3,3,3-hexafluoropropan-2-yl)oxy)carbonyl)-1,8-diazaspiro[4.5]decan-1-yl)methyl)benzyl)piperidine-4-carboxylic acid] | # (# is < 25%) | – | # (# is < 25%)
CS(=O)(=O)N1CCN(c2cc(CN3CCCC34CCN(C(=O)OC(C(F)(F)F)C(F)(F)F)CC4)cc(C(F)(F)F)c2)CC1 [Example 43, 1,1,1,3,3,3-Hexafluoropropan-2-yl 1-(3-(4-(methylsulfonyl)piperazin-1-yl)-5-(trifluoromethyl)benzyl)-1,8-diazaspiro[4.5]decane-8-carboxylate] | # (# is < 25%) | – | # (# is < 25%)
O=C(OC(C(F)(F)F)C(F)(F)F)N1CCC2(CCCN2Cc2ccc(C(F)(F)F)cc2N2CC3CCC(C2)O3)CC1 [Example 73, 1,1,1,3,3,3-Hexafluoropropan-2-yl 1-(2-(8-oxa-3-azabicyclo[3.2.1]octan-3-yl)-4-(trifluoromethyl)benzyl)-1,8-diazaspiro[4.5]decane-8-carboxylate] | # (# is < 25%) | – | # (# is < 25%)
O=C(O)C1CCN(c2cc(Cl)cc(CN3CCCC34CCN(C(=O)OC(C(F)(F)F)C(F)(F)F)CC4)c2)CC1 [Example 122, 1-(3-Chloro-5-((8-(((1,1,1,3,3,3-hexafluoropropan-2-yl)oxy)carbonyl)-1,8-diazaspiro[4.5]decan-1-yl)methyl)phenyl)piperidine-4-carboxylic acid] | – | ### (### is ≥ 75%) | –
O=C(OC(C(F)(F)F)C(F)(F)F)N1CCC2(CCCN2Cc2ccc(C(F)(F)F)cc2N2CCCC2)CC1 [Example 66, 1,1,1,3,3,3-Hexafluoropropan-2-yl 1-(2-(pyrrolidin-1-yl)-4-(trifluoromethyl)benzyl)-1,8-diazaspiro[4.5]decane-8-carboxylate] | # (# is < 25%) | – | # (# is < 25%)
O=C(OC(C(F)(F)F)C(F)(F)F)N1CCC2(CCCN2Cc2ccc(Cl)cc2N2CCN(CCF)CC2)CC1 [Example 19, 1,1,1,3,3,3-Hexafluoropropan-2-yl 1-(4-chloro-2-(4-(2-fluoroethyl)piperazin-1-yl)benzyl)-1,8-diazaspiro[4.5]decane-8-carboxylate] | # (# is < 25%) | – | # (# is < 25%)
O=C(OC(C(F)(F)F)C(F)(F)F)N1CCC2(CCN(Cc3ccc(C(F)(F)F)cc3N3CCCC3)C2)CC1 [Example 72, 1,1,1,3,3,3-Hexafluoropropan-2-yl 2-(2-(pyrrolidin-1-yl)-4-(trifluoromethyl)benzyl)-2,8-diazaspiro[4.5]decane-8-carboxylate] | # (# is < 25%) | – | # (# is < 25%)
CC1(C)CC2(CCN(C(=O)OC(C(F)(F)F)C(F)(F)F)CC2)CN1Cc1ccc(Cl)cc1N1CCOCC1 [Example 50, 1,1,1,3,3,3-Hexafluoropropan-2-yl 2-(4-chloro-2-morpholinobenzyl)-3,3-dimethyl-2,8-diazaspiro[4.5]decane-8-carboxylate] | # (# is < 25%) | – | # (# is < 25%)
O=C(OC(C(F)(F)F)C(F)(F)F)N1CCC2(CCCN2Cc2cc(OC3CCS(=O)(=O)CC3)cc(C(F)(F)F)c2)CC1 [Example 176, 1,1,1,3,3,3-Hexafluoropropan-2-yl 1-(3-((1,1-dioxidotetrahydro-2H-thiopyran-4-yl)oxy)-5-(trifluoromethyl)benzyl)-1,8-diazaspiro[4.5]decane-8-carboxylate] | # (# is < 25%) | – | # (# is < 25%)
O=C(OC(C(F)(F)F)C(F)(F)F)N1CCC2(CCCN2Cc2cccc(N3CCCCC3)c2Cl)CC1 [Example 80, 1,1,1,3,3,3-Hexafluoropropan-2-yl 1-(2-chloro-3-(piperidin-1-yl)benzyl)-1,8-diazaspiro[4.5]decane-8-carboxylate] | – | ### (### is ≥ 75%) | –
O=C(OC(C(F)(F)F)C(F)(F)F)N1CCC2(CCN(Cc3cccc(Cl)c3N3CCC(F)(F)CC3)C2)CC1 [Example 64, 1,1,1,3,3,3-Hexafluoropropan-2-yl 2-(3-chloro-2-(4,4-difluoropiperidin-1-yl)benzyl)-2,8-diazaspiro[4.5]decane-8-carboxylate] | # (# is < 25%) | – | # (# is < 25%)
CCN1CCN(c2cc(C(F)(F)F)ccc2CN2CCCC23CCN(C(=O)OC(C(F)(F)F)C(F)(F)F)CC3)CC1 [Example 87, 1,1,1,3,3,3-Hexafluoropropan-2-yl 1-(2-(4-ethylpiperazin-1-yl)-4-(trifluoromethyl)benzyl)-1,8-diazaspiro[4.5]decane-8-carboxylate] | # (# is < 25%) | – | # (# is < 25%)
O=C(O)C1CCN(Cc2cc(C(F)(F)F)ccc2CN2CCCC23CCN(C(=O)OC(C(F)(F)F)C(F)(F)F)CC3)C1 (stereo not shown) [Example 262] | # (# is < 25%) | – | # (# is < 25%)
O=C(O)[C@@H]1CCCN(c2cc(C(F)(F)F)ccc2CN2CCC3(CCN(C(=O)OC(C(F)(F)F)C(F)(F)F)CC3)C2)C1 [Example 211] | # (# is < 25%) | – | # (# is < 25%)
O=C(OC(C(F)(F)F)C(F)(F)F)N1CCC2(CCN(Cc3ccc(Cl)cc3N3CCCC3)C2)CC1 [Example 17, 1,1,1,3,3,3-Hexafluoropropan-2-yl 2-(4-chloro-2-(pyrrolidin-1-yl)benzyl)-2,8-diazaspiro[4.5]decane-8-carboxylate] | # (# is < 25%) | – | # (# is < 25%)
COc1ccc(F)cc1CN1CCCC12CCN(C(=O)OC(C(F)(F)F)C(F)(F)F)CC2 [Example 8, 1,1,1,3,3,3-Hexafluoropropan-2-yl 1-(5-fluoro-2-methoxybenzyl)-1,8-diazaspiro[4.5]decane-8-carboxylate] | – | ### (### is ≥ 75%) | –
